According to PMC11678797, “A Repurposed Drug Selection Pipeline to Identify CNS-Penetrant Drug Candidates for Glioblastoma” (Pharmaceuticals, 2024):
Like-named read-outs stand apart in the source and are kept apart here.

Test: Pharmacokinetics of omacetaxine in orthotopic glioblastoma PDX and naïve NOD/SCID mice (LC-MS/MS of plasma, brain, liver)
Format: in vivo, mouse
Description: An amount of 10 μL medium samples was vortex-mixed with 30 μL of acetonitrile: formic acid (100:1 v/v) containing 100 nM RO-3306 Internal Standard). After centrifugation, the supernatant was 5-fold diluted in water. OMA concentrations were measured using an LC-MS/MS system that consisted of an UltiMate 3000 LC System (Dionex, Sunnyvale, CA, USA) and an API 4000 mass spectrometer (Sciex, Framingham, MA, USA). Samples were analyzed using a ZORBAX Extend-C18 column (Agilent, Santa Clara, CA, USA), preceded by a Security-guard C18 pre-column (Phenomenex, Utrecht, The Netherlands). Elution was performed using a mixture of mobile phase A (0.1% formic acid in water (v/v)) and mobile phase B (methanol) in a 5 min gradient from 20% to 95% B, followed by 95% B that was maintained for 3 min and then re-equilibrated at 20% B. Multiple reaction monitoring parameters were 546.6/298.1 (OMA) and 352.1/186.0 (RO-3306).
Non-obese diabetic severe combined immunodeficient (NOD/SCID) female mice 6–8 weeks of age were used for this study. All experiments were ethically approved by the local Animal Experiments Committee. Patient-derived glioblastoma cell lines were cultured under serum-free conditions prior to injection into the mice. Mice were stereotactically injected with GS607, GS832 (both 2.5 × 10^5 in 5 μL) or GBM8 (1 × 10^5 in 3 μL) in the right striatum 1.0 mm anteroposterior (AP), 2.0 mm medio lateral (ML) and −2.5 mm dorsal ventral (DV) of bregma suture under aseptic conditions. Mice were monitored daily for signs of persistent abnormal behavior and/or breathing, weight loss >20% and development of neurological symptoms such as convulsions, seizures and/or hemiparesis. Mice were euthanized and the mouse brains harvested for histological and LC/MS/MS analysis.
A single dose of 1.5 mg/kg of OMA was administered s.c. to glioblastoma-bearing NOD/SCID and naïve non-tumor-bearing mice. Mice received OMA prior to the timepoint drug delivery experiment, ensuring the presence of significant tumor masses. For GS607, this was at 78 days; for GS832 at 90 days; and for GBM8 at 46 days post-tumor implantation, based on previous survival experiments. Blood samples were collected at 15 min, 30 min, 60 min, 120 min and 240 min via the tail vein and/or submandibular vein and placed in EDTA tubes. Mice were euthanized at 60 min, 120 min or 240 min with cervical dislocation. Brains and livers were surgically collected and snap-frozen in liquid nitrogen (N2). To preserve the drug stability in plasma mouse blood, samples were centrifuged immediately upon collection. Plasma was separated by centrifugation at 3500 rpm at 4 °C for 15 min. Both plasma and tissue samples were stored at −80 °C until LC-MS/MS analysis.

[1] = GBM8 PDX, 60 min, single s.c. dose 1.5 mg/kg, n = 6, 1.5 mg/kg
[2] = GS607-PDX, 60 min, single s.c. dose 1.5 mg/kg, n = 2 blood samples, 1.5 mg/kg
[3] = GS607-PDX, 60 min, single s.c. dose 1.5 mg/kg, n = 4, 1.5 mg/kg
[4] = GS832-PDX, 60 min, single s.c. dose 1.5 mg/kg, n = 5, 1.5 mg/kg
[5] = GS832-PDX, single s.c. dose 1.5 mg/kg

With `COC(=O)C[C@](O)(CCCC(C)(C)O)C(=O)O[C@@H]1C(OC)=C[C@]23CCCN2CCc2cc4c(cc2[C@H]13)OCO4` [OMA, Omacetaxine mepesuccinate] the “[Brain] ± SD, right hemisphere (tumor bearing)” value (shortened to “[Brain] ± SD, right hemisphere”) [1] was 45.0 ± 20.0 ng/g, the “[Liver] ± SD” value [1] was 998.2 ± 254.3 ng/g and the “[Plasma] ± SD” value [1] was 391.3 ± 57.5 ng/mL. The “[Brain]/[Plasma] Ratio ± SD” value (GBM8 PDX, 60 min, single s.c. dose 1.5 mg/kg, 1.5 mg/kg) was 0.11 ± 0.04, the “[Brain]/[Plasma] Ratio ± SD” value [2] was 0.23 ± 0.01 and the “[Plasma] ± SD” value [2] was 88.4 ± 9.0 ng/mL. The “[Brain] ± SD, right hemisphere” value [3] was 20.7 ± 5.05 ng/g, the “[Liver] ± SD” value [3] was 1653.4 ± 163.6 ng/g and the “[Plasma] ± SD” value (GS832-PDX NOD/SCID mice, single s.c. dose 1.5 mg/kg, 15 min (Table 1), 1.5 mg/kg) was 396.3 ± 58.7 ng/mL. For the same molecule, the “[Plasma] ± SD” value (GS832-PDX NOD/SCID mice, single s.c. dose 1.5 mg/kg, 60 min (Table 1, n = 9), 1.5 mg/kg) was 165.7 ± 28.7 ng/mL, the “[Plasma] ± SD” value (GS832-PDX NOD/SCID mice, single s.c. dose 1.5 mg/kg, 240 min (Table 1), 1.5 mg/kg) was 23.9 ± 2.86 ng/mL and the “[Brain] ± SD, right hemisphere” value [4] was 18.0 ± 6.3 ng/g. The “[Liver] ± SD” value [4] was 680.0 ± 155.9 ng/g, the “[Brain]/[Plasma] Ratio ± SD” value (GS832-PDX, 60 min, single s.c. dose 1.5 mg/kg, 1.5 mg/kg) was 0.10 ± 0.05 and the “[Liver] ± SD” value (GS832-PDX, 240 min, single s.c. dose 1.5 mg/kg, n = 5, 1.5 mg/kg) was 190.1 ± 47.8 ng/g. The “[Brain]/[Plasma] Ratio ± SD” value (GS832-PDX, 240 min, single s.c. dose 1.5 mg/kg, 1.5 mg/kg) was 0.50 ± 0.33, the “brain total mean concentration lower than in the liver” value [5] was “approximately 40 fold” and the “concentrations in tumor-bearing hemisphere versus contralateral hemisphere” value [5] was “not significantly different”. The “reduction in plasma concentration from peak (15 min) by 4 h” value (GS832 tumor-bearing mice, single s.c. dose 1.5 mg/kg) was 17 fold, the “OMA concentrations in tumor-bearing versus contralateral hemispheres” value (any of the tested models (GS832, GS607, GBM8)) was “did not detect a significant difference” and the concentration at 60 min (female, NOD/SCID, mouse, brain tumor, sc, 1.5 mg/kg, GBM8 PDX, 60 min, single s.c. dose 1.5 mg/kg, read-out: measured brain tumor concentration expressed) was 82.5 nM. The concentration at 60 min (female, NOD/SCID, mouse, brain tumor, sc, 1.5 mg/kg, GS607-PDX, 60 min, single s.c. dose 1.5 mg/kg, read-out: measured brain tumor concentration expressed) was 37.9 nM, the concentration at 60 min (female, NOD/SCID, mouse, brain tumor, sc, 1.5 mg/kg, GS832-PDX, 60 min, single s.c. dose 1.5 mg/kg, read-out: measured brain tumor concentration expressed) was 33 nM and the concentration at 60 min (female, NOD/SCID, mouse, brain, right hemisphere (non-tumor-bearing), sc, 1.5 mg/kg, naïve non-tumor-bearing mice, 60 min, single s.c. dose 1.5 mg/kg, n = 2, read-out: [Brain] ± SD, right hemisphere (non-tumor-bearing)) was 16.4 ± 2.9 ng/g. It also gave a concentration at 60 min (female, NOD/SCID, mouse, brain, right hemisphere (tumor bearing), sc, 1.5 mg/kg, GBM8 PDX, 60 min, single s.c. dose 1.5 mg/kg, n = 6, read-out: [Brain] ± SD, right hemisphere (tumor bearing)) of 45 ± 20 ng/g, a concentration at 60 min (female, NOD/SCID, mouse, brain, right hemisphere (tumor bearing), sc, 1.5 mg/kg, GS607-PDX, 60 min, single s.c. dose 1.5 mg/kg, n = 4, read-out: [Brain] ± SD, right hemisphere (tumor bearing)) of 21 ± 5 ng/g and a concentration at 60 min (female, NOD/SCID, mouse, brain, right hemisphere (tumor bearing), sc, 1.5 mg/kg, GS832-PDX, 60 min, single s.c. dose 1.5 mg/kg, n = 5, read-out: [Brain] ± SD, right hemisphere (tumor bearing)) of 18 ± 6 ng/g. For the same molecule, the concentration at 120 min (female, NOD/SCID, mouse, brain, right hemisphere (tumor bearing), sc, 1.5 mg/kg, GS832-PDX, 120 min, single s.c. dose 1.5 mg/kg, n = 5, read-out: [Brain] ± SD, right hemisphere (tumor bearing)) was 20.8 ± 16.9 ng/g.
